Assay results: ChEMBL document CHEMBL5154740, “Novel Aurora A and Protein Kinase C (α, β1, β2, and θ) Multitarget Inhibitors: Impact of Selenium Atoms on the Potency and Selectivity” (J Med Chem, 2022)
Activity calls are given as the source filed them. No cut-off for these calls is given here.

Legend:
[1] = biological target: Tyrosine-protein kinase Lck (Homo sapiens) (UniProt P06239); experiment: Inhibition of LCK (unknown origin) at 50 nM by Z'LYTE screening method relative to control
[2] = biological target: T1, TGF-beta receptor type-1 (Homo sapiens) (UniProt P36897); experiment: Inhibition of TGFBR1 (unknown origin) at 50 nM by Z'LYTE screening method relative to control
T1 sequence (whole entry): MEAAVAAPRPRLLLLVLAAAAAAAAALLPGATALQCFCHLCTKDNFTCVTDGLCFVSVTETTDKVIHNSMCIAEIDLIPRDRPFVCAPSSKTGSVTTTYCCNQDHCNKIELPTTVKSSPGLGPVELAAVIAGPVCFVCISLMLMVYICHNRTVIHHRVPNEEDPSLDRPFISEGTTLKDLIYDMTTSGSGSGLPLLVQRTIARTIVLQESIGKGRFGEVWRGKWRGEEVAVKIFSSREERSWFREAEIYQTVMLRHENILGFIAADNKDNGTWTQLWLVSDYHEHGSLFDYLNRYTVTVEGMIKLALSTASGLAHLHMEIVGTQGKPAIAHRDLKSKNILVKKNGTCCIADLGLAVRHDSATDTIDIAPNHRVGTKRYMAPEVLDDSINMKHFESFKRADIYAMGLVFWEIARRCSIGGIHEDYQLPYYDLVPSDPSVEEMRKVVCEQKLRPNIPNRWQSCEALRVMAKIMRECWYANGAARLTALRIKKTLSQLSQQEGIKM

MDA-MB-231 = experiment: Inhibition of clonogenicity in human MDA-MB-231/M cells assessed as reduction in colony formation incubated for 7 days by crystal violet staining based analysis; format: functional, cell-based; details: time 7.0 day
[3] = Toxicity in BALB/c mouse implanted with mouse 4T1 cells assessed as loss of body weight at 10 mg/kg, po administered 3 times a week for 30 days; format: organism-based; details: in vivo, 720 h, time 30 day
4T1 [4] = experiment: Antitumor activity against mouse 4T1 cells xenografted in BALB/c mouse assessed as tumor growth inhibition at 10 mg/kg, po administered 3 times a week for 30 days; format: functional, organism-based; details: time 30.0 day
4T1 [5] = experiment: Anti-metastasis activity in mouse 4T1 cells xenografted in BALB/c mouse assessed as lung metastases at 10 mg/kg, po administered 3 times a week for 30 days; format: functional, organism-based; details: time 30.0 day
[6] = biological target: 3-phosphoinositide-dependent protein kinase 1 (Homo sapiens) (UniProt O15530); experiment: Inhibition of PDK1 (unknown origin) at 50 nM by Z'LYTE screening method relative to control
3-phosphoinositide-dependent protein kinase 1 (Homo sapiens), sequence (O15530 whole entry, looked up): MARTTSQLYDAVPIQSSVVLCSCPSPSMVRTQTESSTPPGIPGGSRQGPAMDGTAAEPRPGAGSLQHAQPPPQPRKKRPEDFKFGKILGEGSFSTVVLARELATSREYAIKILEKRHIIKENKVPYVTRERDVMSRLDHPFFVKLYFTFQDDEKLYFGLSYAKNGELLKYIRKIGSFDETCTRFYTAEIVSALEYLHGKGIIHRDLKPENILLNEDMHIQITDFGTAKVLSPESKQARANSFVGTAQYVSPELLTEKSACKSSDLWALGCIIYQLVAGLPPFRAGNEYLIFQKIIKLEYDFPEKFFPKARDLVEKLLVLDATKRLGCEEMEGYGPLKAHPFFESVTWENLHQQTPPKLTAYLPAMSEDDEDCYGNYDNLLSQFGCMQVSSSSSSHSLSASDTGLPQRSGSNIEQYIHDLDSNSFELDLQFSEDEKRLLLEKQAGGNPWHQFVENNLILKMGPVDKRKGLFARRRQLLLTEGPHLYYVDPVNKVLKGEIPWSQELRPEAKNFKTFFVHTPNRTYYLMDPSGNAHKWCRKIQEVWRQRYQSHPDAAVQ

Tyrosine-protein kinase Lck (Homo sapiens), sequence (P06239 2-509 limits assumed): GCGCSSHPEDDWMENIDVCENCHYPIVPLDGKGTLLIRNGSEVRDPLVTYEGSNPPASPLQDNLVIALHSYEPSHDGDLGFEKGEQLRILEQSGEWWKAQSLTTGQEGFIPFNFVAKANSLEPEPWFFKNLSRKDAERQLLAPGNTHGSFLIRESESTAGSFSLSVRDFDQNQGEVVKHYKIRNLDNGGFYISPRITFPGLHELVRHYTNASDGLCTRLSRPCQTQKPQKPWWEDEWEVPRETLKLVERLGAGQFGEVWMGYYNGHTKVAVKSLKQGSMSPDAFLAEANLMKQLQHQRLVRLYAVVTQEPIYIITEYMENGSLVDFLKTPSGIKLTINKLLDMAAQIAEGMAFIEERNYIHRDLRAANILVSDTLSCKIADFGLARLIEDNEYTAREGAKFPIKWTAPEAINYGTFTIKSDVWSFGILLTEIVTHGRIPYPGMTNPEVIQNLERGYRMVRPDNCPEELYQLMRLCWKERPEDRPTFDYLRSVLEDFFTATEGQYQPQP

| inhibition [1] [%] | inhibition [2] [%] | inhibition [6] [%] | Compound | inhibition (MDA-MB-231) | Activity [3] | Activity (4T1 [4]) | Activity (4T1 [5]) |
| --- | --- | --- | --- | --- | --- | --- | --- |
| 7 | 3 | 0 | O=C1c2ccccc2CN1c1nc(NC2CCCCC2)c2nc[nH]c2n1 | – | Toxic | – | – |
| 13 | 11 | 0 | O=c1c2ccccc2[se]n1-c1nc(NC2CCCCC2)c2nc[nH]c2n1 | – | – | – | – |

| Compound | inhibition [1] [%] | inhibition [2] [%] | inhibition [6] [%] | inhibition (MDA-MB-231) | Activity [3] | Activity (4T1 [4]) | Activity (4T1 [5]) |
| --- | --- | --- | --- | --- | --- | --- | --- |
| O=c1c2ccccc2[se]n1-c1nc(N[C@H]2CC[Se]C2)c2nc[nH]c2n1 | 2 | 0 | 0 | Active | Non-Toxic | Active | Active |
